The values that follow are results of earlier work, collected in PMC5742115, “Pharmacophore Modeling and in Silico/in Vitro Screening for Human Cytochrome P450 11B1 and Cytochrome P450 11B2 Inhibitors” (Frontiers in Chemistry, 2017).

Like-named read-outs stand apart in the source and are kept apart here.

One series has as its system CYP11B1. To be noted: reported activity, supplementary Table 1, read-out: CYP11B1 IC50, cited from earlier work.
Another series concerns CYP11B2. To be noted: reported activity, supplementary Table 1, read-out: CYP11B2 IC50, cited from earlier work.

Regarding `O=C1CCc2cc(-c3cncc(F)c3)cc3c2N1CC3` [CHEMBL1765212], the concentration for half-maximal inhibition (IC50) was 1290 nM with CYP11B1 (ref Lucas et al., 2011) and 4.4 nM with CYP11B2 (ref Lucas et al., 2011).
Take `O=C1CCc2cc(-c3cncc(C(F)(F)F)c3)cc3c2N1CC3` [CHEMBL1765213]: the 50% inhibitory concentration (IC50) in the series with CYP11B1 (ref Lucas et al., 2011) was 141 nM; in the series on CYP11B2 (ref Lucas et al., 2011) it was 5.9 nM.
For `O=C1CCc2cc(-c3cncc4ccccc34)cc3c2N1CC3` [CHEMBL1765214], the IC50 in the series with CYP11B1 (ref Lucas et al., 2011) was 13 nM; in the series with CYP11B2 (ref Lucas et al., 2011), 0.2 nM.
For `O=C1CCc2cc(-c3cncc4ccccc34)cc3c2N1CCC3` [CHEMBL1765215], the half-maximal inhibitory concentration (IC50) was 34 nM in the series on CYP11B1 (ref Lucas et al., 2011) and 0.2 nM in the series with CYP11B2 (ref Lucas et al., 2011).
As for `O=C1CCc2cc(-c3cncnc3)cc3c2N1CC3` [CHEMBL1765217], the concentration for half-maximal inhibition (IC50) was 28500 nM with CYP11B1 (ref Lucas et al., 2011) and 56 nM in the series on CYP11B2 (ref Lucas et al., 2011).
Turning to `O=C1CCc2cc(-n3ccnc3)cc3c2N1CC3` [CHEMBL1765218], the IC50 is 2080 nM with CYP11B1 (ref Lucas et al., 2011) and 89 nM with CYP11B2 (ref Lucas et al., 2011).
As to `O=C1CCc2cc(-c3cncc(-c4ccccc4)c3)cc3c2N1CC3` [CHEMBL1765219], the IC50 with CYP11B1 (ref Lucas et al., 2011) was 58 nM; in the series with CYP11B2 (ref Lucas et al., 2011), 1.3 nM.
Regarding `O=C1CCc2cc(-c3cncc(-c4ccccc4F)c3)cc3c2N1CC3` [CHEMBL1765220], the concentration for half-maximal inhibition (IC50) in the series on CYP11B1 (ref Lucas et al., 2011) was 43 nM; in the series with CYP11B2 (ref Lucas et al., 2011), 0.7 nM.
For `O=C1CCc2cc(-c3cncc(-c4cccc(F)c4)c3)cc3c2N1CC3` [CHEMBL1765221], the IC50 in the series on CYP11B1 (ref Lucas et al., 2011) was 490 nM; with CYP11B2 (ref Lucas et al., 2011), 1.4 nM.
Turning to `O=C1CCc2cc(-c3cncc(-c4ccc(F)cc4)c3)cc3c2N1CC3` [CHEMBL1765222], the IC50 with CYP11B1 (ref Lucas et al., 2011) is 40 nM; in the series with CYP11B2 (ref Lucas et al., 2011), 0.9 nM.
On to `O=C1CCc2cc(-c3cncc(-c4cc(F)ccc4F)c3)cc3c2N1CC3` [CHEMBL1765223], for which the IC50 with CYP11B1 (ref Lucas et al., 2011) was 183 nM; in the series with CYP11B2 (ref Lucas et al., 2011), 3.6 nM.
Regarding `O=C1CCc2cc(-c3cncc(-c4ccc(F)c(F)c4)c3)cc3c2N1CC3` [CHEMBL1765224], the IC50 was 496 nM in the series on CYP11B1 (ref Lucas et al., 2011) and 2.3 nM with CYP11B2 (ref Lucas et al., 2011).
Turning to `O=C1CCc2cc(-c3cncc(-c4cc(F)cc(F)c4)c3)cc3c2N1CC3` [CHEMBL1765225], the IC50 is 1750 nM in the series with CYP11B1 (ref Lucas et al., 2011) and 18 nM in the series with CYP11B2 (ref Lucas et al., 2011).
Turning to `COc1ccccc1-c1cncc(-c2cc3c4c(c2)CCN4C(=O)CC3)c1` [CHEMBL1765226], the 50% inhibitory concentration (IC50) in the series on CYP11B1 (ref Lucas et al., 2011) is 128 nM; in the series with CYP11B2 (ref Lucas et al., 2011), 2.4 nM.
As to `COc1cccc(-c2cncc(-c3cc4c5c(c3)CCN5C(=O)CC4)c2)c1` [CHEMBL1765227], the IC50 in the series with CYP11B1 (ref Lucas et al., 2011) was 1370 nM; in the series on CYP11B2 (ref Lucas et al., 2011), 4.6 nM.
On to `COc1ccc(-c2cncc(-c3cc4c5c(c3)CCN5C(=O)CC4)c2)cc1` [CHEMBL1765228], for which the IC50 in the series on CYP11B1 (ref Lucas et al., 2011) was 21 nM; in the series with CYP11B2 (ref Lucas et al., 2011), 1.4 nM.
Turning to `O=C1CCc2cc(-c3cncc(-c4cccc(O)c4)c3)cc3c2N1CC3` [CHEMBL1765229], the IC50 with CYP11B1 (ref Lucas et al., 2011) is 44 nM; in the series with CYP11B2 (ref Lucas et al., 2011), 1.2 nM.
As for `O=C1CCc2cc(-c3cncc(-c4cccc(OC(F)(F)F)c4)c3)cc3c2N1CC3` [CHEMBL1765230], the concentration for half-maximal inhibition (IC50) in the series on CYP11B1 (ref Lucas et al., 2011) was 2060 nM; in the series on CYP11B2 (ref Lucas et al., 2011), 16 nM.
On to `O=C1CCc2cc(-c3cncc(-c4cccc(C(F)(F)F)c4)c3)cc3c2N1CC3` [CHEMBL1765231], for which the IC50 in the series on CYP11B1 (ref Lucas et al., 2011) was 4650 nM; in the series with CYP11B2 (ref Lucas et al., 2011), 33 nM.
For `S=C1CCc2cc(-c3cccnc3)cc3c2N1CC3` [CHEMBL1765232], the concentration for half-maximal inhibition (IC50) is 333 nM with CYP11B1 (ref Lucas et al., 2011) and 1.2 nM with CYP11B2 (ref Lucas et al., 2011).
Consider `Brc1ncccc1Cn1ccnc1` [CHEMBL2011242], for which the IC50 is 61 nM in the series on CYP11B1 (ref Hille et al., 2011a) and 911 nM in the series on CYP11B2 (ref Hille et al., 2011a).
Turning to `Fc1ccccc1-c1ccc(Cn2ccnc2)cn1` [CHEMBL2011244], the concentration for half-maximal inhibition (IC50) is 72 nM in the series with CYP11B1 (ref Hille et al., 2011a) and 1740 nM in the series on CYP11B2 (ref Hille et al., 2011a).
Turning to `Oc1ccc(-c2ccc(Cn3ccnc3)cn2)cc1F` [CHEMBL2011246], the IC50 is 17 nM in the series with CYP11B1 (ref Hille et al., 2011a) and 237 nM in the series on CYP11B2 (ref Hille et al., 2011a).
Regarding `c1ccc2c(-c3ccc(Cn4ccnc4)cn3)cccc2c1` [CHEMBL2011253], the IC50 is 68 nM in the series on CYP11B1 (ref Emmerich et al., 2013); 42 nM with CYP11B1 (ref Hille et al., 2011a); 656 nM in the series on CYP11B2 (ref Emmerich et al., 2013); 2080 nM in the series with CYP11B2 (ref Hille et al., 2011a).
As to `c1ccc2c(-c3ccc(Cn4ccnc4)cn3)cncc2c1` [CHEMBL2011260], the 50% inhibitory concentration (IC50) is 95 nM in the series on CYP11B1 (ref Hille et al., 2011a) and 914 nM in the series on CYP11B2 (ref Hille et al., 2011a).
With `c1csc(-c2ccc(Cn3ccnc3)cn2)c1` [CHEMBL2011261], the concentration for half-maximal inhibition (IC50) with CYP11B1 (ref Hille et al., 2011a) is 75 nM; in the series with CYP11B2 (ref Hille et al., 2011a) it was 1240 nM.
For the compound `Clc1ncc(Cn2ccnc2)cc1-c1cccs1` [CHEMBL2011430], the half-maximal inhibitory concentration (IC50) in the series on CYP11B1 (ref Hille et al., 2011a) was 73 nM; with CYP11B2 (ref Hille et al., 2011a), 416 nM.
In the case of `c1ccc2c(-c3ccc(Cn4ccnc4)cn3)csc2c1` [CHEMBL2011433], the IC50 was 40 nM in the series on CYP11B1 (ref Hille et al., 2011a) and 1160 nM with CYP11B2 (ref Hille et al., 2011a).
In the case of `c1cn(Cc2ccc(-c3ccoc3)nc2)cn1` [CHEMBL2011435], the IC50 in the series on CYP11B1 (ref Hille et al., 2011a) is 76 nM; in the series with CYP11B2 (ref Hille et al., 2011a) it was 2830 nM.
